Data published in ChEMBL document CHEMBL1201862, “PubChem BioAssay data set” (2004).
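Assay format: 96-well plates, 48-hour exposure. GI50 marks 50% less growth.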 The source made the active and inactive calls. No stated cut-off is given here; in the data, active = GI50 up to about 1.1 µM and inactive = higher.

What was measured:
Assay in all cases: NCI tumour cell line growth inhibition, 48 h
ACHN = test system: ACHN
COLO 205 = test system: COLO 205
786-0 = test system: 786-0
SK-MEL-5 = test system: SK-MEL-5
SK-OV-3 = test system: SK-OV-3
CAKI-1 = test system: CAKI-1
RPMI-8226 = test system: RPMI-8226
KM12 = test system: KM12
NCI-H460 = test system: NCI-H460
K562 = test system: K562
HCT-15 = test system: HCT-15
HOP-62 = test system: HOP-62
UACC-62 = test system: UACC-62
HT-29 = test system: HT-29
IGROV-1 = test system: IGROV-1
OVCAR-4 = test system: OVCAR-4

| SMILES | GI50 (ACHN) | GI50 (COLO 205) | GI50 (786-0) | GI50 (SK-MEL-5) | GI50 (SK-OV-3) | GI50 (CAKI-1) | GI50 (RPMI-8226) | GI50 (KM12) | GI50 (NCI-H460) | GI50 (K562) | GI50 (HCT-15) [µM] | GI50 (HOP-62) | GI50 (UACC-62) | GI50 (HT-29) | GI50 (IGROV-1) | GI50 (OVCAR-4) |
| --- | --- | --- | --- | --- | --- | --- | --- | --- | --- | --- | --- | --- | --- | --- | --- | --- |
| CS(=O)(=O)CC1=Nc2nnc(CCCCCCCc3nnc4n3C(=O)C(CS(C)(=O)=O)=N4)n2C1=O | > 100 µM (inactive) | > 100 µM (inactive) | > 100 µM (inactive) | > 100 µM (inactive) | > 100 µM (inactive) | > 100 µM (inactive) | > 100 µM (inactive) | > 100 µM (inactive) | > 100 µM (inactive) | > 100 µM (inactive) | > 100 | > 100 µM (inactive) | > 100 µM (inactive) | > 100 µM (inactive) | > 100 µM (inactive) |  |
| COc1cc2cccc(NC(=O)c3cc(OC)c(OC)c(OC)c3Br)c2cc1OC | 11.5 µM (inactive) | 12.9 µM (inactive) | 29.2 µM (inactive) | 3.24 µM (inactive) | 22.5 µM (inactive) | 17.6 µM (inactive) | 2.45 µM (inactive) | 11.1 µM (inactive) | 12.5 µM (inactive) | 12.5 µM (inactive) |  | 17.3 µM (inactive) | 10.3 µM (inactive) | 21.8 µM (inactive) | 14.4 µM (inactive) | 9.02 µM (inactive) |
| COc1ccc2c(c1)C(=O)Cc1ccccc1CC2 | > 100 µM (inactive) | > 100 µM (inactive) | 72.3 µM (inactive) | > 100 µM (inactive) | > 100 µM (inactive) | > 100 µM (inactive) | > 100 µM (inactive) | > 100 µM (inactive) | > 100 µM (inactive) | > 100 µM (inactive) | > 100 |  | > 100 µM (inactive) | > 100 µM (inactive) | > 100 µM (inactive) | > 100 µM (inactive) |
| CC(=O)n1c2c(c(=O)n1-c1ccccc1)[S+]([O-])CCC2 (stereo not drawn) | 46.8 µM (inactive) | > 100 µM (inactive) | 40.7 µM (inactive) | 62.4 µM (inactive) | > 100 µM (inactive) | 55.5 µM (inactive) | 6.08 µM (inactive) | 9.1 µM (inactive) | 16.7 µM (inactive) | 26.7 µM (inactive) | 21.7 | 11.1 µM (inactive) | 20.3 µM (inactive) | 69.5 µM (inactive) | 99.1 µM (inactive) | 0.705 µM (active) |
| CCOC(=O)C1Cc2c(ccc(OC)c2OC)C(=O)C1N (stereo not drawn) | > 100 µM (inactive) | > 100 µM (inactive) | > 100 µM (inactive) | > 100 µM (inactive) | > 100 µM (inactive) | > 100 µM (inactive) | > 100 µM (inactive) | > 100 µM (inactive) | > 100 µM (inactive) | > 100 µM (inactive) | > 100 | > 100 µM (inactive) | > 100 µM (inactive) | > 100 µM (inactive) | > 100 µM (inactive) | 82.2 µM (inactive) |
| CC(=O)CN(Cc1cc(C)c2c(c1)c1ccccc1n2Cc1ccccc1)S(=O)(=O)c1ccc(C)cc1 |  | > 100 µM (inactive) | > 100 µM (inactive) | > 100 µM (inactive) | > 100 µM (inactive) | > 100 µM (inactive) | > 100 µM (inactive) | > 100 µM (inactive) |  | > 100 µM (inactive) |  | > 100 µM (inactive) | > 100 µM (inactive) | > 100 µM (inactive) | > 100 µM (inactive) | > 100 µM (inactive) |
| COc1cccc(N2C(=O)C3C4C=C5c6ccccc6N(c6ccccc6)C5(C3C2=O)[C@H]2C(=O)N(c3cccc(OC)c3)C(=O)[C@@H]42)c1 (stereo partly drawn) |  | > 100 µM (inactive) | > 100 µM (inactive) | > 100 µM (inactive) | > 100 µM (inactive) | > 100 µM (inactive) | > 100 µM (inactive) | > 100 µM (inactive) | > 100 µM (inactive) | > 100 µM (inactive) | > 100 | > 100 µM (inactive) | > 100 µM (inactive) | > 100 µM (inactive) | > 100 µM (inactive) | > 100 µM (inactive) |
| COc1cccc(/C=N/NC(N)=O)c1O | > 100 µM (inactive) | > 100 µM (inactive) | > 100 µM (inactive) | > 100 µM (inactive) | > 100 µM (inactive) | > 100 µM (inactive) | > 100 µM (inactive) | > 100 µM (inactive) | > 100 µM (inactive) | > 100 µM (inactive) | > 100 | > 100 µM (inactive) | > 100 µM (inactive) | > 100 µM (inactive) | > 100 µM (inactive) | > 100 µM (inactive) |
| Cc1ccc(-n2c(C)nc3c2C(=O)c2ccccc2C3=O)cc1 | 27.9 µM (inactive) | 14.6 µM (inactive) | 18.5 µM (inactive) | 15.2 µM (inactive) | > 100 µM (inactive) |  |  | > 100 µM (inactive) | 4.44 µM (inactive) | 5.86 µM (inactive) | 7.53 | 41.2 µM (inactive) | 8.57 µM (inactive) | 11.9 µM (inactive) | 27.9 µM (inactive) | 82.8 µM (inactive) |
| CN1C2(c3ccccc3)C(C(=O)c3ccccc3)=C(C(=O)c3ccccc3)C1(c1ccccc1)c1c(-c3ccccc3)sc(-c3ccccc3)c12 | > 100 µM (inactive) | > 100 µM (inactive) | > 100 µM (inactive) | > 100 µM (inactive) | > 100 µM (inactive) | > 100 µM (inactive) | > 100 µM (inactive) | > 100 µM (inactive) | > 100 µM (inactive) | > 100 µM (inactive) | > 100 | > 100 µM (inactive) | > 100 µM (inactive) | > 100 µM (inactive) | > 100 µM (inactive) | > 100 µM (inactive) |
| Cc1nc2ccccc2c(=O)n1/N=C(\N=N\c1ccccc1)c1ccccc1Cl | 33.3 µM (inactive) | > 100 µM (inactive) | 44.8 µM (inactive) | 38.3 µM (inactive) | 11.2 µM (inactive) | 25.4 µM (inactive) | 20.4 µM (inactive) | 41.4 µM (inactive) | 24 µM (inactive) | 30.6 µM (inactive) | 48.1 | 32.1 µM (inactive) | 54.6 µM (inactive) | 43.8 µM (inactive) | 39.9 µM (inactive) | 41 µM (inactive) |
| CC(=O)NC(CCCCNC(=O)N(CCCl)N=O)C(=O)NCc1ccccc1 (stereo not drawn) | > 100 µM (inactive) | > 100 µM (inactive) | 35.9 µM (inactive) |  |  | > 100 µM (inactive) | > 100 µM (inactive) | > 100 µM (inactive) | 28.6 µM (inactive) | > 100 µM (inactive) | > 100 | > 100 µM (inactive) | > 100 µM (inactive) | > 100 µM (inactive) | 51.8 µM (inactive) | > 100 µM (inactive) |
| CC(=O)Nc1ccc(/C=C(\NC(=O)c2ccccc2)c2nc3ccc4c(c3[nH]2)C(=O)c2ccccc2C4=O)cc1 |  | 57.8 µM (inactive) | 35.6 µM (inactive) | 21.8 µM (inactive) | 72.4 µM (inactive) | 5.02 µM (inactive) | 4.46 µM (inactive) |  |  | 19.9 µM (inactive) | 39.2 | > 100 µM (inactive) | 17.9 µM (inactive) | 45.6 µM (inactive) | 7.13 µM (inactive) | 56.8 µM (inactive) |
| COc1ccc(NC(=O)CSc2nnc(-c3ccc(NC(C)=O)cc3)o2)cc1 | 16.7 µM (inactive) | 19.4 µM (inactive) | 17.2 µM (inactive) | 13.2 µM (inactive) | 44.1 µM (inactive) |  |  | 15.1 µM (inactive) | 15.5 µM (inactive) | 21.4 µM (inactive) | 11.2 | 34.1 µM (inactive) | 16.5 µM (inactive) | 11.1 µM (inactive) | 15.5 µM (inactive) | 15.7 µM (inactive) |
| O=C1CC2C=CC1C2CO (stereo not drawn) | > 100 µM (inactive) | > 100 µM (inactive) | > 100 µM (inactive) | > 100 µM (inactive) | > 100 µM (inactive) | > 100 µM (inactive) | > 100 µM (inactive) | > 100 µM (inactive) | > 100 µM (inactive) |  | > 100 | > 100 µM (inactive) | > 100 µM (inactive) | > 100 µM (inactive) | > 100 µM (inactive) | > 100 µM (inactive) |
| CCCCCCCCCCCCCCC1OC(=O)c2ccccc21 (stereo not drawn) | 43.5 µM (inactive) |  | > 100 µM (inactive) |  | > 100 µM (inactive) |  | 32.2 µM (inactive) | 39.1 µM (inactive) | 60.8 µM (inactive) | 30.6 µM (inactive) |  | > 100 µM (inactive) | > 100 µM (inactive) | 35.8 µM (inactive) | 89.5 µM (inactive) | 66.7 µM (inactive) |
| COc1ccc(-c2ccccc2)c2[nH]c3c(c12)CCNC3=O |  | > 100 µM (inactive) | > 100 µM (inactive) | > 100 µM (inactive) |  | > 100 µM (inactive) | > 100 µM (inactive) | > 100 µM (inactive) | > 100 µM (inactive) | > 100 µM (inactive) | > 100 | > 100 µM (inactive) | > 100 µM (inactive) | > 100 µM (inactive) | > 100 µM (inactive) | > 100 µM (inactive) |
| COc1ccccc1CCc1cc(OC)c(OC)c(OC)c1 | 51.9 µM (inactive) | 42.2 µM (inactive) | 74.3 µM (inactive) | 19.5 µM (inactive) |  | 57.8 µM (inactive) | 20.2 µM (inactive) | 38.5 µM (inactive) | 44.1 µM (inactive) | 33 µM (inactive) | 36.1 | > 100 µM (inactive) | 65 µM (inactive) | 41.5 µM (inactive) | 49.9 µM (inactive) | 40.6 µM (inactive) |
| CCc1ccccc1NC(=O)C(=O)C1C(=O)N(c2ccccc2)N=C1N (stereo not drawn) | > 100 µM (inactive) |  | > 100 µM (inactive) | > 100 µM (inactive) |  | > 100 µM (inactive) | > 100 µM (inactive) | > 100 µM (inactive) | > 100 µM (inactive) | > 100 µM (inactive) | > 100 | > 100 µM (inactive) | > 100 µM (inactive) | > 100 µM (inactive) | > 100 µM (inactive) | > 100 µM (inactive) |
